Data published in patent US20240228497A1, “Pyrrolo[2, 3-b]Pyrazine-Based Bifunctional Compounds as HPK1 Degraders and the Use Thereof” (BeiGene, Ltd., priority 2021, published 2024).

How the values were obtained:
[1] = tested on: pSLP76 (S376) level in Jurkat cell line; experiment: Cellular pSLP76(S376) HTRF Assay in Jurkat cells; format: cell-based; conditions: 2 h compound treatment, stimulated with 0.05 μg/mL anti-human CD3 (OKT3) for 30 min
Method: Cellular pSLP76(S376) HTRF Assay
Jurkat cell line was used in this study. Cells were maintained in RPMI 1640 supplemented with heat-inactivated 10% fetal bovine serum (Thermo Fisher), 50 units/mL penicillin and streptomycin (Thermo Fisher) and kept at 37° C. in a humidified atmosphere of 5% CO2 in air. Cells were reinstated from frozen stocks that were laid down within 30 passages from the original cells purchased. After cell starvation in the assay buffer (RPMI 1640 supplemented with heat-inactivated 0.1% fetal bovine serum) for 18 hours, cells were seeded into a round bottom 96-well plate at 150,000 cells per well density. Cells were treated with a 9-point dilution series of test compounds. The final compound concentration is from 0 to 2 μM. After 2 h compound treatment, cells were stimulated with 0.05 μg/mL anti-human CD3 (OKT3, Bioxcell) for 30 min at 37° C. Then the cells were lysed, and the pSLP76 (S376) level in the cell lysates was detected by HTRF kit (Cisbio). A total of 16 μL of cell lysate from each well of a 96-well plate was transferred to a 384-well small volume white assay plate. Lysate from each well was incubated with 2 μL of Eu^3+-cryptate (donor) labeled anti-phospho-SLP76 and 2 μL of D2 (acceptor) labeled anti-phospho-SLP76 antibodies (Cisbio) overnight in dark at room temperature. FRET signals (655 nm) were measured using a PHERAstar FSX reader (BMG Labtech). IC50 determination was performed by fitting the curve of percent inhibition versus the log of the inhibitor concentration using Dotmatics.

[2] = target: T1, HPK1 kinase (aa1-346, Life Technologies) (Homo sapiens, UniProt Q92918); experiment: HPK Kinase Activity Assay at 1 mM ATP (TR-FRET); format: biochemical; conditions: HPK1 kinase 40 nM, 0.5 μM STK1 substrate, 60 min preincubation, read-out: Enzymatic activity IC50
T1 construct: HPK1 kinase (aa1-346, Life Technologies); purchased Life Technologies
T1 sequence (Q92918 1-346): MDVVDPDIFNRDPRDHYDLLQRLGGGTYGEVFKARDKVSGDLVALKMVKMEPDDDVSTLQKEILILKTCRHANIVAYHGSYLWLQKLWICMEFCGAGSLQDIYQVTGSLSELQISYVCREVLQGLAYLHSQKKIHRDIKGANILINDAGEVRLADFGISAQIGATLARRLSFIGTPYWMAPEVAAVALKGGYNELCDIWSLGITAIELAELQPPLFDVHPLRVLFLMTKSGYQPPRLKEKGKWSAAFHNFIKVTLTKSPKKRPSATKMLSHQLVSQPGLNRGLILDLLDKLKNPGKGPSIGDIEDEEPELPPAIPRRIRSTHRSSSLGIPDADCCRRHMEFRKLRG
Method: HPK Kinase Activity Assay at 1 mM ATP
Compounds disclosed herein were tested for inhibition of HPK1 kinase (aa1-346, Life Technologies) activity in assays based on the time-resolved fluorescence-resonance energy transfer (TR-FRET) methodology. The assays were carried out in 384-well low volume black plates in a reaction mixture containing HPK1 kinase (40 nM), 1 mM ATP, 0.5 μM STK1 substrate and 0-10 μM compound in buffer containing 50 mM HEPES, 0.01% BSA, 0.1 mM Orthovanadate, 10 mM MgCl2, 1 mM DTT, pH=7.0, 0.005% Tween-20. The kinase was incubated with the compounds disclosed herein or DMSO for 60 minutes at room temperature and the reaction was initiated by the addition of ATP and STK1 substrate. After reaction at room temperature for 120 minutes, an equal volume of stop/detection solution was added according to the manufacture's instruction (CisBio). The stop/detection solution contained STK Antibody—Cryptate and XL665-conjugated streptavidin in Detection Buffer. The TR-FRET signals (ratio of fluorescence emission at 665 nm over emission at 620 nm with excitation at 337 nm wavelength) were recorded on a PHERAstar FS plate reader (BMG Labtech). Phosphorylation of STK1 substrate led to the binding of STK Antibody—Cryptate to the biotinylated STK1 substrate, which places fluorescent donor (Eu^3+ crypate) in close proximity to the accepter (Streptavidin-XL665), thus resulting in a high degree of fluorescence resonance energy transfer. The inhibition of HPK1 in presence of increasing concentrations of compounds was calculated based on the ratio of fluorescence at 665 nm to that at 620 nm. IC50 determination was performed by fitting the curve of percent inhibition versus the log of the inhibitor concentration using Dotmatics.

HPK1 protein = target: T2, HPK1 protein (Homo sapiens, UniProt Q92918); experiment: HPK1 Protein Degradation Assay in Human PBMC (Western Blot); format: cell-based; conditions: 24 h compound incubation
T2 construct: host or cells: human PBMC (CD4+ and CD8+ T cells gated in the FACS assay)
Method: HPK1 Protein Degradation Assay in Human PBMC (Western Blot)
Human PBMCs (AllCells) was used in this study. Cells were thawed one day in advance and maintained in RPMI-1640 supplemented 10% fetal bovine serum (Thermo Fisher), 50 units/mL penicillin and streptomycin (Thermo Fisher) and the mixture was kept at 37° C. in a humidified atmosphere air containing 5% CO2. 3×10^6 PBMCs per well in 1 mL culture medium were seeded in the 12-well plate, and the cells were treated with an appropriate dilution series of compounds with a final concentration up to […]. After 24 h of compound incubation, the medium was aspirated, the cells were washed with PBS, and then 30 μL of 1X protein lysis buffer (Cell Signaling Technology) containing protease inhibitors (Merck) and phosphatase inhibitors (Sigma) was added. The cells were lysed. After centrifugation, the supernatants were quantified by BCA protein assay kit (Thermo Fisher). 4X loading Buffer (Thermo Fisher) was added to equal amounts of total protein from each sample and heated at 95° C. for 5 minutes. 30-50 μg of cell lysate was loaded onto a 4%-12% NuPAGE Bis-Tris Gel (Thermo Fisher) and electro-transferred to NC membranes (Thermo Fisher). The membranes were blocked for least 1 hour with blocking reagent (LI-COR), and then incubated overnight with anti-HPK1 (Cell Signaling Technology, 4472S) antibodies and as loading control anti-ß-actin (Cell Signaling Technology, 3700S) or anti-GAPDH (Cell Signaling Technology, 97166S) at 4° C. with gentle shaking. The membranes were washed three times with TBST, and incubated at least 1 hour at room temperature with anti-mouse or anti-rabbit secondary fluorescent antibody (Thermo Fisher, A32729; LI—COR, 926-32213). Then the membranes were washed three times in TBST, and one time in water. Immunoreactive bands were visualized by Odyssey CLx and analyzed by GraphPad Prism 8.

T2 sequence (Q92918 whole entry): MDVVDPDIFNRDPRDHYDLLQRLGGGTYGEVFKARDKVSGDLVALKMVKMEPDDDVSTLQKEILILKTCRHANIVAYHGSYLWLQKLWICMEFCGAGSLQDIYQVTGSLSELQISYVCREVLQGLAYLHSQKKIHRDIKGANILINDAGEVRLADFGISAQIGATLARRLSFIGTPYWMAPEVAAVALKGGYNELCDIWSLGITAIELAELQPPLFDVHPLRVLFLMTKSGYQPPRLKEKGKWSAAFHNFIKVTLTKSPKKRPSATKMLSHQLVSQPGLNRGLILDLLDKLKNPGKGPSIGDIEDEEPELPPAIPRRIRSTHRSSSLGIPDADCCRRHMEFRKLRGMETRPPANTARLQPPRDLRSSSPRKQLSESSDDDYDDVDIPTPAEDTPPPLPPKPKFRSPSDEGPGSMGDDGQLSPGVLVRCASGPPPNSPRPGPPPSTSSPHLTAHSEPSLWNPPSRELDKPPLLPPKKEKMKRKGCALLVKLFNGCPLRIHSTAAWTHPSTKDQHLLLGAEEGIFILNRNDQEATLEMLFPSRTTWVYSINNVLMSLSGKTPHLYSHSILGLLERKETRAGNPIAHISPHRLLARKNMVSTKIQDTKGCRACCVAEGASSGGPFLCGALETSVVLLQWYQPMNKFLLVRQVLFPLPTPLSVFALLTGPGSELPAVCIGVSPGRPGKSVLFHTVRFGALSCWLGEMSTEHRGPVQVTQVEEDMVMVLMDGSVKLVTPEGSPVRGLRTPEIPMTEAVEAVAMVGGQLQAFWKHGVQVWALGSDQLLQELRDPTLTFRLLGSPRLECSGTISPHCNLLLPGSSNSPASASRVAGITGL

Row | IC50 [1] [nM] | IC50 [2] [nM] | DC50 (HPK1 protein) [nM] | Dmax (HPK1 protein) [%] | Protein degradation DC90 (HPK1 protein) [nM] | SMILES
1 | 459 | 140 | 59 | 95 | 817 | Cc1cc(-c2c[nH]c3ncc(-c4cc(C)c5c(c4)CCN(CCC(=O)NC4CCN(c6ccc(N7CCC(=O)NC7=O)cc6)CC4)C5)nc23)ccc1C(=O)N(C)C [Example 4, 4-(2-(2-(3-((1-(4-(2,4-dioxotetrahydropyrimidin-1(2H)-yl)phenyl)piperidin-4-yl)amino)-3-oxopropyl)-8-methyl-1,2,3,4-tetrahydroisoquinolin-6-yl)-5H-pyrrolo[2,3-b]pyrazin-7-yl)-N,N,2-trimethylbenzamide]
2 | 515 | 253 | 87 | 91 | 294 | Cc1cc(-c2c[nH]c3ncc(-c4cc(C)c5c(c4)CCN(CCC(=O)NCC4CCN(c6ccc(C7CCC(=O)NC7=O)cc6)CC4)C5)nc23)ccc1C(=O)N(C)C (stereo not drawn) [Example 2, 4-(2-(2-(3-(((1-(4-(2,6-dioxopiperidin-3-yl)phenyl)piperidin-4-yl)methyl)amino)-3-oxopropyl)-8-methyl-1,2,3,4-tetrahydroisoquinolin-6-yl)-5H-pyrrolo[2,3-b]pyrazin-7-yl)-N,N,2-trimethylbenzamide]
3 | 879 | 121 | 183 | 47 | 3805 | Cc1cc(-c2c[nH]c3ncc(-c4cc(C)c5c(c4)CCN(CCNC(=O)C4CCN(c6ccc7c(c6)C(=O)N(C6CCC(=O)NC6=O)C7=O)CC4)C5)nc23)ccc1C(=O)N(C)C (stereo not drawn) [Example 1, N-(2-(6-(7-(4-(dimethylcarbamoyl)-3-methylphenyl)-5H-pyrrolo[2,3-b]pyrazin-2-yl)-8-methyl-3,4-dihydroisoquinolin-2(1H)-yl)ethyl)-1-(2-(2,6-dioxopiperidin-3-yl)-1,3-dioxoisoindolin-5-yl)piperidine-4-carboxamide]
